Source: the supplement of paper PMC11451515

Tests used:
Details in all cases: 48 h
[1] = system: SEM cells; experiment: AUC of viability dose-response curve (% viability x log10 dose units); higher = less sensitive
Method in brief: (§1)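 Leukemia cells adapted to each medium were seeded in 1536-well plates (500 or 1000 cells/well) and given library compounds in DMSO for 48 h at 37°C. The 11 threefold doses spanned 47 μM to 0.79 nM, and CellTiter-Glo One luminescence was normalised per plate to DMSO and cell-free wells before four-parameter log-logistic fitting on log10 dose. Area under the curve was integrated with the trapezoidal rule, scaling curves above full viability and removing curves that failed quality control.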

[2] = system: P12-Ichikawa; experiment: as above
Method in brief: as §1

[3] = system: NOMO1; experiment: as above
Method in brief: as §1

[4] = system: SEM cells; experiment: cell viability relative to DMSO control; higher = less cytotoxic
Method in brief: (§2)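 Viability is expressed as a percentage of DMSO wells within each plate, and cell-free wells serve as background. Seeding densities in the 1536-well plates (5 μl) were 500 cells/well for NOMO1 or SEM leukemia cells and 1000 cells/well for P12-Ichikawa. Each line was adapted for at least four passages in each medium. Library compounds in DMSO were pin-dosed at 47 μM to 0.79 nM (11 points, threefold), and CellTiter-Glo One luminescence was read after 48 h at 37°C.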

[5] = system: P12-Ichikawa; experiment: as above
Method in brief: as §2

CCC(=O)O[C@@]1([C@H](C)C[C@H]2[C@@H]3C[C@H](F)\C4=C\C(=O)\C=C/[C@]4(C)[C@@]3(F)[C@@H](O)C[C@]12C)C(=O)SCF
AUC of viability dose-response curve
Details | [1] | [2] | [3]
HPLM + 10% dialyzed FBS | 328 | 342 | 455
RPMI 5 mM glucose + 10% FBS | 325 | 292 | 465
RPMI 5 mM glucose + 10% dialyzed FBS | 280 | 290 | 439

cell viability [%]
Details | HPLM + 10% dialyzed FBS | RPMI 5 mM glucose + 10% FBS | RPMI 5 mM glucose + 10% dialyzed FBS
[4], 0.000781 µM | 96.6 | 94.2 | 98.1
[4], 0.00234 µM | 102 | 103 | 124
[4], 0.00702 µM | 94.7 | 88.6 | 83.6
[4], 0.0211 µM | 68 | 67.8 | 73.5
[4], 0.0632 µM | 60.6 | 53.2 | 40.5
[4], 0.19 µM | 13.1 | 13.1 | 11.7
[4], 0.569 µM | 66.1 | 68.6 | 58.8
[4], 1.71 µM | 79.4 | 73 | 63.4
[4], 5.12 µM | 64.9 | 68.6 | 60.6
[4], 15.4 µM | 61.9 | 59.5 | 53.3
[4], 46.1 µM | 58 | 59.6 | 53.4
[5], 0.000781 µM | 101 | 120 | 95.9
[5], 0.00234 µM | 112 | 119 | 100
[5], 0.00702 µM | 88 | 86.3 | 71.3
[5], 0.0211 µM | 75.6 | 76.5 | 55.5
[5], 0.0632 µM | 69.2 | 74.7 | 54.4
[5], 0.19 µM | 64.8 | 68.8 | 55.1
[5], 0.569 µM | 70.6 | 68.2 | 53.6
[5], 1.71 µM | 71.5 | 58.9 | 49.6
[5], 5.12 µM | 65.9 | 59.2 | 51.1
[5], 15.4 µM | 69.8 | 55.1 | 48.6
[5], 46.1 µM | 66.2 | 59.9 | 46.7
